Assay results taken from patent US8318771B2, “Method of treatment of nephrogenic diabetes insipidus” (Universita' Degli Studi di Bari, priority 2010, dated 2012).

Key:
[1] = system: MCD4 cells; assay: Surface protein biotinylation of apical membrane AQP2 in MCD4 cells (densitometric analysis, FIG. 1); type: cell-based; conditions: control set to 100%
Text: (§1) In MCD4 cells in the absence of lovastatin in the culture medium (-Lovastatin) and in control (ctr) conditions, the AQP2 is stored in intracellular vesicles. […] The FK mimes the effect of the vasopressin in in vitro experiments. The same phenomenon occurs in the tubule in vivo following release into the circulation of vasopressin. […] The lovastatin therefore mimes the effect of the FK or the stimulation with vasopressin. […] It is possible to quantize the effect of the treatment with lovastatin in terms of accumulation of AQP2 on the apical membrane by means of surface protein biotinylation experiments.
In the absence of lovastatin, only a modest amount of AQP2 is expressed on the apical membrane of the MCD4 cells, and therefore biotinylated, in control cells. The treatment with FK determines an increase of approximately 3 times in the amount of AQP2 expressed on the apical membrane.

[2] = system: MCD4 cells; assay: AQP2 localisation on the apical membrane of MCD4 renal cells in culture; type: cell-based
Protocol: The MCD4 cells, which are in culture and derive from main cells of the renal collecting duct, were treated experimentally with lovastatin. In the cell model, as in the renal tubule in vivo, the presence of AQP2 on the membrane depends on the presence of vasopressin.
as §1
In vitro tests performed in MCD4 renal cells indicate that the minimum treatment time with statins able to produce an evident shift of the AQP2 in the cells is 6 hours.

C=C[C@@]1(C)CC(=O)[C@]2(O)[C@@]3(C)[C@@H](O)CCC(C)(C)[C@@H]3[C@H](O)[C@H](OC(C)=O)[C@@]2(C)O1 [forskolin]
increase in the amount of AQP2 expressed on the apical membrane (biotinylated) ([1]; treatment with FK): approximately 3 times

CC[C@H](C)C(=O)O[C@H]1C[C@@H](C)C=C2C=C[C@H](C)[C@H](CC[C@@H]3C[C@@H](O)CC(=O)O3)[C@H]21 [lovastatin]
increase in the AQP2 on the apical membrane ([2]; MCD4 cells, lovastatin in the medium plus treatment with FK): even more evident
AQP2 accumulation on the apical membrane ([2]; MCD4 control (ctr) cells, 5 μM lovastatin in the culture medium for 72 h): accumulate a considerable amount of AQP2 on the apical membrane
increase of AQP2 present on the apical membrane (biotinylated) ([1]; 72 h with lovastatin alone): comparable to the one obtained by the FK

CC(C)c1nc(N(C)S(C)(=O)=O)nc(-c2ccc(F)cc2)c1/C=C/[C@@H](O)C[C@@H](O)CC(=O)O [rosuvastatin]
effect produced by the lovastatin (AQP2 accumulation on the apical membrane) induced by other statins ([2]; MCD4 cells, hydrosoluble formulation): induced also
